The values that follow come from patent publication US12391648B2, “Pyridyloxy thioester derivative and preparation method therefor, herbicidal composition, and application” (Qingdao Kingagroot Chemical Compound Co., Ltd., priority 2018, dated 2025).

The structures appear in SMILES notation.

Holding throughout (assay): Post-emergence test experiment (Table 3, 1000 g/ha)
Type in all cases: in vivo
Conditions in all cases: post-emergence spray, after 3 weeks, fresh weight inhibition

One assay concerns Abutilon theophrasti. An outline of the steps:
(§1)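 Activity graded levels 0-5 by fresh-weight inhibition (level 5 above 85%, level 0 below 5%), assessed 3 weeks after treatment. Plants grown in greenhouse pots were sprayed post-emergence at 2-3 leaves using acetone/tween-80 solutions with methyl oleate synergist (1.5 L/ha).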

A further assay deals with Setaria viridis. A digest of the protocol:
as §1

The subject of another assay is Digitaria sanguinalis. A digest of the protocol:
as §1

Another assay relates to Monochoria vaginalis. An outline of the steps:
as §1

A further assay concerns Leptochloa chinensis. An outline of the steps: as §1
Another assay concerns Galium spurium. A digest of the protocol:
as §1

`CCCSC(=O)C(C)Oc1nc(F)c(Cl)c(N)c1Cl` (stereo not drawn) [Compound 67]: in the assay with Abutilon theophrasti, the “Activity level (growth inhibition rate) Abutilon theophrasti” value is 5 (Level 5: the growth inhibition rate is greater than 85%). In addition, the “Activity level (growth inhibition rate) Setaria viridis” value in the assay with Setaria viridis was 5 (Level 5: the growth inhibition rate is greater than 85%). The “Activity level (growth inhibition rate) Digitaria sanguinalis” value in the assay on Digitaria sanguinalis is on record as 5 (Level 5: the growth inhibition rate is greater than 85%). Further, the “Activity level (growth inhibition rate) Monochoria Vaginalis” value with Monochoria vaginalis is listed as 5 (Level 5: the growth inhibition rate is greater than 85%). Also, the “Activity level (growth inhibition rate) Leptochloa chinensis” value in the assay on Leptochloa chinensis is 5 (Level 5: the growth inhibition rate is greater than 85%). The “Activity level (growth inhibition rate) Galium spurium” value with Galium spurium is given as 5 (Level 5: the growth inhibition rate is greater than 85%).
Turning to `CC(C)SC(=O)C(C)Oc1nc(F)c(Cl)c(N)c1Cl` (stereo not drawn) [Compound 68], the “Activity level (growth inhibition rate) Abutilon theophrasti” value with Abutilon theophrasti is listed as 5 (Level 5: the growth inhibition rate is greater than 85%). In the assay with Setaria viridis, the “Activity level (growth inhibition rate) Setaria viridis” value is on record as 5 (Level 5: the growth inhibition rate is greater than 85%). Also, the “Activity level (growth inhibition rate) Digitaria sanguinalis” value with Digitaria sanguinalis is on record as 5 (Level 5: the growth inhibition rate is greater than 85%). Further, the “Activity level (growth inhibition rate) Monochoria Vaginalis” value in the assay on Monochoria vaginalis is on record as 5 (Level 5: the growth inhibition rate is greater than 85%). Moreover, the “Activity level (growth inhibition rate) Leptochloa chinensis” value with Leptochloa chinensis was 5 (Level 5: the growth inhibition rate is greater than 85%). In the assay on Galium spurium, the “Activity level (growth inhibition rate) Galium spurium” value is reported as 5 (Level 5: the growth inhibition rate is greater than 85%).
For `CCC(C)SC(=O)C(C)Oc1nc(F)c(Cl)c(N)c1Cl` (stereo not drawn) [Compound 69], in the assay with Abutilon theophrasti, the “Activity level (growth inhibition rate) Abutilon theophrasti” value is listed as 5 (Level 5: the growth inhibition rate is greater than 85%). The “Activity level (growth inhibition rate) Setaria viridis” value with Setaria viridis is 5 (Level 5: the growth inhibition rate is greater than 85%). For the same molecule, the “Activity level (growth inhibition rate) Digitaria sanguinalis” value in the assay with Digitaria sanguinalis is reported as 5 (Level 5: the growth inhibition rate is greater than 85%). The “Activity level (growth inhibition rate) Monochoria Vaginalis” value in the assay with Monochoria vaginalis is on record as 5 (Level 5: the growth inhibition rate is greater than 85%). Also, in the assay on Leptochloa chinensis, the “Activity level (growth inhibition rate) Leptochloa chinensis” value is reported as 5 (Level 5: the growth inhibition rate is greater than 85%). Moreover, the “Activity level (growth inhibition rate) Galium spurium” value in the assay with Galium spurium is 5 (Level 5: the growth inhibition rate is greater than 85%).
`CCCCSC(=O)C(C)Oc1nc(F)c(Cl)c(N)c1Cl` (stereo not drawn) [Compound 70]: the “Activity level (growth inhibition rate) Abutilon theophrasti” value in the assay on Abutilon theophrasti is on record as 5 (Level 5: the growth inhibition rate is greater than 85%). Moreover, the “Activity level (growth inhibition rate) Setaria viridis” value in the assay on Setaria viridis is reported as 5 (Level 5: the growth inhibition rate is greater than 85%). In the assay on Digitaria sanguinalis, the “Activity level (growth inhibition rate) Digitaria sanguinalis” value is 5 (Level 5: the growth inhibition rate is greater than 85%). Moreover, in the assay on Monochoria vaginalis, the “Activity level (growth inhibition rate) Monochoria Vaginalis” value was 5 (Level 5: the growth inhibition rate is greater than 85%). In addition, the “Activity level (growth inhibition rate) Leptochloa chinensis” value in the assay on Leptochloa chinensis is listed as 5 (Level 5: the growth inhibition rate is greater than 85%). Moreover, the “Activity level (growth inhibition rate) Galium spurium” value in the assay on Galium spurium is 5 (Level 5: the growth inhibition rate is greater than 85%).
`CCCCCSC(=O)C(C)Oc1nc(F)c(Cl)c(N)c1Cl` (stereo not drawn) [Compound 71]: the “Activity level (growth inhibition rate) Abutilon theophrasti” value in the assay with Abutilon theophrasti is listed as 5 (Level 5: the growth inhibition rate is greater than 85%). In addition, the “Activity level (growth inhibition rate) Setaria viridis” value in the assay with Setaria viridis is recorded as 5 (Level 5: the growth inhibition rate is greater than 85%). In addition, the “Activity level (growth inhibition rate) Digitaria sanguinalis” value with Digitaria sanguinalis is 5 (Level 5: the growth inhibition rate is greater than 85%). Besides, the “Activity level (growth inhibition rate) Monochoria Vaginalis” value with Monochoria vaginalis is listed as 5 (Level 5: the growth inhibition rate is greater than 85%). Moreover, the “Activity level (growth inhibition rate) Leptochloa chinensis” value with Leptochloa chinensis was 5 (Level 5: the growth inhibition rate is greater than 85%). The “Activity level (growth inhibition rate) Galium spurium” value with Galium spurium is 5 (Level 5: the growth inhibition rate is greater than 85%).
Consider `CCCCCCSC(=O)C(C)Oc1nc(F)c(Cl)c(N)c1Cl` (stereo not drawn) [Compound 72], for which the “Activity level (growth inhibition rate) Abutilon theophrasti” value in the assay with Abutilon theophrasti is 5 (Level 5: the growth inhibition rate is greater than 85%). The “Activity level (growth inhibition rate) Setaria viridis” value in the assay with Setaria viridis is given as 5 (Level 5: the growth inhibition rate is greater than 85%). Also, in the assay on Digitaria sanguinalis, the “Activity level (growth inhibition rate) Digitaria sanguinalis” value was 5 (Level 5: the growth inhibition rate is greater than 85%). Further, the “Activity level (growth inhibition rate) Monochoria Vaginalis” value with Monochoria vaginalis is listed as 5 (Level 5: the growth inhibition rate is greater than 85%). In the assay with Leptochloa chinensis, the “Activity level (growth inhibition rate) Leptochloa chinensis” value is recorded as 5 (Level 5: the growth inhibition rate is greater than 85%). In the assay with Galium spurium, the “Activity level (growth inhibition rate) Galium spurium” value is on record as 5 (Level 5: the growth inhibition rate is greater than 85%).
Take `CCCCCCCCSC(=O)C(C)Oc1nc(F)c(Cl)c(N)c1Cl` (stereo not drawn) [Compound 73]: the “Activity level (growth inhibition rate) Abutilon theophrasti” value in the assay on Abutilon theophrasti was 5 (Level 5: the growth inhibition rate is greater than 85%). Moreover, the “Activity level (growth inhibition rate) Setaria viridis” value in the assay with Setaria viridis is recorded as 5 (Level 5: the growth inhibition rate is greater than 85%). Moreover, in the assay on Digitaria sanguinalis, the “Activity level (growth inhibition rate) Digitaria sanguinalis” value was 5 (Level 5: the growth inhibition rate is greater than 85%). Besides, the “Activity level (growth inhibition rate) Monochoria Vaginalis” value in the assay on Monochoria vaginalis is 5 (Level 5: the growth inhibition rate is greater than 85%). Besides, the “Activity level (growth inhibition rate) Leptochloa chinensis” value in the assay on Leptochloa chinensis is given as 5 (Level 5: the growth inhibition rate is greater than 85%). Further, the “Activity level (growth inhibition rate) Galium spurium” value with Galium spurium was 5 (Level 5: the growth inhibition rate is greater than 85%).
For the molecule `CC(Oc1nc(F)c(Cl)c(N)c1Cl)C(=O)SC(F)(F)F` (stereo not drawn) [Compound 75], the “Activity level (growth inhibition rate) Abutilon theophrasti” value in the assay with Abutilon theophrasti is recorded as 5 (Level 5: the growth inhibition rate is greater than 85%). In the assay with Setaria viridis, the “Activity level (growth inhibition rate) Setaria viridis” value is on record as 5 (Level 5: the growth inhibition rate is greater than 85%). Moreover, in the assay on Digitaria sanguinalis, the “Activity level (growth inhibition rate) Digitaria sanguinalis” value was 5 (Level 5: the growth inhibition rate is greater than 85%). Also, in the assay with Monochoria vaginalis, the “Activity level (growth inhibition rate) Monochoria Vaginalis” value was 5 (Level 5: the growth inhibition rate is greater than 85%). Also, in the assay on Leptochloa chinensis, the “Activity level (growth inhibition rate) Leptochloa chinensis” value was 5 (Level 5: the growth inhibition rate is greater than 85%). The “Activity level (growth inhibition rate) Galium spurium” value in the assay with Galium spurium was 5 (Level 5: the growth inhibition rate is greater than 85%).
`CC(Oc1nc(F)c(Cl)c(N)c1Cl)C(=O)SC(F)(F)C(F)(F)F` (stereo not drawn) [Compound 76]: in the assay on Abutilon theophrasti, the “Activity level (growth inhibition rate) Abutilon theophrasti” value is listed as 5 (Level 5: the growth inhibition rate is greater than 85%). Also, the “Activity level (growth inhibition rate) Setaria viridis” value with Setaria viridis is given as 5 (Level 5: the growth inhibition rate is greater than 85%). The “Activity level (growth inhibition rate) Digitaria sanguinalis” value in the assay with Digitaria sanguinalis is given as 5 (Level 5: the growth inhibition rate is greater than 85%). For the same molecule, in the assay with Monochoria vaginalis, the “Activity level (growth inhibition rate) Monochoria Vaginalis” value is recorded as 5 (Level 5: the growth inhibition rate is greater than 85%). Moreover, the “Activity level (growth inhibition rate) Leptochloa chinensis” value with Leptochloa chinensis is reported as 5 (Level 5: the growth inhibition rate is greater than 85%). The “Activity level (growth inhibition rate) Galium spurium” value with Galium spurium was 5 (Level 5: the growth inhibition rate is greater than 85%).
In the case of `CC(Oc1nc(F)c(Cl)c(N)c1Cl)C(=O)SCC(F)(F)F` (stereo not drawn) [Compound 78], in the assay on Abutilon theophrasti, the “Activity level (growth inhibition rate) Abutilon theophrasti” value was 5 (Level 5: the growth inhibition rate is greater than 85%). In addition, in the assay on Setaria viridis, the “Activity level (growth inhibition rate) Setaria viridis” value is 5 (Level 5: the growth inhibition rate is greater than 85%). Further, in the assay on Digitaria sanguinalis, the “Activity level (growth inhibition rate) Digitaria sanguinalis” value is 5 (Level 5: the growth inhibition rate is greater than 85%). In addition, in the assay on Monochoria vaginalis, the “Activity level (growth inhibition rate) Monochoria Vaginalis” value is 5 (Level 5: the growth inhibition rate is greater than 85%). For the same molecule, the “Activity level (growth inhibition rate) Leptochloa chinensis” value in the assay with Leptochloa chinensis is given as 5 (Level 5: the growth inhibition rate is greater than 85%). Moreover, in the assay with Galium spurium, the “Activity level (growth inhibition rate) Galium spurium” value is 5 (Level 5: the growth inhibition rate is greater than 85%).
On to `CC(Oc1nc(F)c(Cl)c(N)c1Cl)C(=O)SCC(F)(F)C(F)(F)F` (stereo not drawn) [Compound 80], for which the “Activity level (growth inhibition rate) Abutilon theophrasti” value in the assay on Abutilon theophrasti is on record as 5 (Level 5: the growth inhibition rate is greater than 85%). In addition, the “Activity level (growth inhibition rate) Setaria viridis” value in the assay with Setaria viridis is given as 5 (Level 5: the growth inhibition rate is greater than 85%). For the same molecule, in the assay on Digitaria sanguinalis, the “Activity level (growth inhibition rate) Digitaria sanguinalis” value is listed as 5 (Level 5: the growth inhibition rate is greater than 85%). Moreover, the “Activity level (growth inhibition rate) Monochoria Vaginalis” value in the assay with Monochoria vaginalis is 5 (Level 5: the growth inhibition rate is greater than 85%). Also, the “Activity level (growth inhibition rate) Leptochloa chinensis” value in the assay with Leptochloa chinensis is given as 5 (Level 5: the growth inhibition rate is greater than 85%). Moreover, the “Activity level (growth inhibition rate) Galium spurium” value with Galium spurium was 5 (Level 5: the growth inhibition rate is greater than 85%).
In the case of `CC(Oc1nc(F)c(Cl)c(N)c1Cl)C(=O)SC1CC1` (stereo not drawn) [Compound 81], the “Activity level (growth inhibition rate) Abutilon theophrasti” value in the assay on Abutilon theophrasti is on record as 5 (Level 5: the growth inhibition rate is greater than 85%). The “Activity level (growth inhibition rate) Setaria viridis” value with Setaria viridis was 5 (Level 5: the growth inhibition rate is greater than 85%). Also, the “Activity level (growth inhibition rate) Digitaria sanguinalis” value in the assay with Digitaria sanguinalis was 5 (Level 5: the growth inhibition rate is greater than 85%). Besides, the “Activity level (growth inhibition rate) Monochoria Vaginalis” value in the assay on Monochoria vaginalis is given as 5 (Level 5: the growth inhibition rate is greater than 85%). The “Activity level (growth inhibition rate) Leptochloa chinensis” value in the assay on Leptochloa chinensis is 5 (Level 5: the growth inhibition rate is greater than 85%). The “Activity level (growth inhibition rate) Galium spurium” value with Galium spurium was 5 (Level 5: the growth inhibition rate is greater than 85%).
For the molecule `COSC(=O)C(C)Oc1nc(F)c(Cl)c(N)c1Cl` (stereo not drawn) [Compound 83], the “Activity level (growth inhibition rate) Abutilon theophrasti” value in the assay with Abutilon theophrasti was 5 (Level 5: the growth inhibition rate is greater than 85%). Also, in the assay on Setaria viridis, the “Activity level (growth inhibition rate) Setaria viridis” value was 5 (Level 5: the growth inhibition rate is greater than 85%). In addition, in the assay on Digitaria sanguinalis, the “Activity level (growth inhibition rate) Digitaria sanguinalis” value is recorded as 5 (Level 5: the growth inhibition rate is greater than 85%). In the assay on Monochoria vaginalis, the “Activity level (growth inhibition rate) Monochoria Vaginalis” value is given as 5 (Level 5: the growth inhibition rate is greater than 85%). Further, the “Activity level (growth inhibition rate) Leptochloa chinensis” value in the assay on Leptochloa chinensis was 5 (Level 5: the growth inhibition rate is greater than 85%). In the assay on Galium spurium, the “Activity level (growth inhibition rate) Galium spurium” value is given as 5 (Level 5: the growth inhibition rate is greater than 85%).
